Laboratory results taken from patent publication US5804592A, “Method for improving disturbed behavior and elevating mood in humans” (Unimed Pharmaceuticals, Inc., priority 1997, dated 1998).
Entries after “also recorded” stand apart in the source; their conditions may differ.

How the values were obtained:
[1] = Double blind placebo-controlled crossover study: Lawton Observed Affect Scale - Past (negative and positive affect); assay type: in vivo, human
Description: (§1) Each patient in the this example was diagnosed with "probable" DAT by a neurologist according to DSM III-R and NINCDS-ARDDA criteria. These generally accepted criteria include deficits in two or more areas of cognition, progressive worsening of memory and other cognitive functions, no disturbances of consciousness, and absence of systemic disorders or other brain disease that in and of themselves could account for the progressive deficits in memory and cognition. (McKhann et al., Neurology, 34: 939-944 (1984). Each patient received physical examination and laboratory examination including complete blood count with differential, liver function tests, thyroid function tests including TSH, iron binding capacity, BUN, creatinine, and electrolytes.
(§2) A double blind placebo-controlled crossover design was used with each period of study lasting six weeks. Dronabinol or placebo was administered on a fixed dose schedule, 2.5 mg capsule or identically looking placebo capsule every morning and noon. Subjects were randomly assigned to placebo first or dronabinol first groups. Possible side effects were determined every week by asking the primary caregivers if the patient experienced any of a list of possible symptoms. A list of these symptoms observed in twelve patients over seventy weeks is identified in Table 2 below.
(§3) Baseline measurements were taken the week prior to randomization and treatment initiation. Behavior measures were obtained weekly for the 12 week duration of the trial. Repeated measures on these variables were therefore available for six weeks on dronabinol and six weeks on placebo for each subject.
Patients' affect was measured using Lawton Observed Affect Scale - Past (Lawton et al., J. Gerontol. [B], 51B: P3-14 (1996)). This scale consists of six items, three measuring positive affect (pleasure, interest and contentment) and three measuring negative affect (anger, anxiety/fear and depression/sadness) on a 5 point scale (from 1=never to 5=more than 3 time a day). The negative and positive affect scores were calculated by adding scores of the appropriate items.
(§4) Statistical analysis was performed using Statistix 4.1 (Analytic Software). Repeated measures ANOVA for the 12 weeks of the study was done to test for effects of order, time and treatment on-study variables.

[2] = Possible side effects determined every week by asking the primary caregivers (Table 2); assay type: in vivo, human
Description: as §1, §2

[3] = cited from earlier work
[4] = four compartment model; Agurell et al. 1986; cited from earlier work
[5] = AIDS patients, after dronabinol treatment; Gorter 1991, Beal 1995; cited from earlier work
[6] = Double blind placebo-controlled crossover study: Cohen-Mansfield Agitation Inventory (CMAI), disturbed behavior; assay type: in vivo, human
Description: as §1
(§5) Eleven of the patients were on a psychoactive medication before the beginning of dronabinol study and were maintained on the same medication during the study period. Four patients were receiving regular doses of neuroleptics (perphenazine, thiothixene, haloperidol or thioridazine), 4 patients were receiving regular doses of benzodiazepienes (3 lorazepam and one alprazolam), and 8 patients were receiving regular doses of antidepressants. The antidepressants included sertraline (8 patients), trazodone (4 patients) and desipramine (1 patient). Three patients were on both sertraline and trazodone, and one patient was switched from trazodone to doxepin. Antidepressant treatment was initiated at least 4 weeks before the start of the study and the mean duration of antidepressant treatment before study initiation was 7 months. Eleven patients had orders for psychoactive medications as needed (PRN). These included lorazepam in 4 patients and alprazolam, trazodone, doxepin, haloperidol, perphenazine and thioridazine in one patient each. The patients received these medications very rarely, on the average 9.7 doses/6 weeks during the placebo administration and 7.2 doses/6 weeks during dronabinol treatment.
as §2, §3
The disturbed behavior was measured by the Cohen-Mansfield Agitation Inventory (CMAI)(Cohen-Mansfieldet al., J. Gerontol. Med. Sci., 44: M77-84 (1989)) which is a widely used instrument with good psychometric properties. Twenty nine items of this inventory are rated by frequency (from 1=never to 7=constantly or almost constantly) and by disruptiveness (from 1=not at all to 5=extremely). For each observation period, the total score was calculated by multiplying the frequency and disruptiveness of individual items and adding the products. The CMAI items observed are identified in Table 3 below.
as §4

[7] = Use of as needed (PRN) psychoactive medication during the study; assay type: in vivo, human; settings: during dronabinol treatment; placebo administration 9.7
Description: as §5, with “The patients received these medications very rarely, on the average 9.7 doses/6 weeks during the placebo administration and 7.2 doses/6 weeks during dronabinol treatment.” left out
A double blind placebo-controlled crossover design was used with each period of study lasting six weeks. […] Possible side effects were determined every week by asking the primary caregivers if the patient experienced any of a list of possible symptoms. […]

[8] = decrease during the 12 weeks study period (both phases), df=5,143
[9] = dronabinol first vs placebo first, df=5,143
[10] = repeated measures ANOVA, df=5,143
[11] = 12 patients, 2.5 mg capsule every morning and noon, six weeks
[12] = seventy weeks observed, 2.5 mg capsule every morning and noon
[13] = repeated measures ANOVA, df=1,143
[14] = repeated measures ANOVA, df=5,143, dronabinol/placebo crossover

Compound: CCCCCc1cc(O)c2c(c1)OC(C)(C)[C@@H]1CCC(C)=C[C@@H]21 (relative stereo) [dronabinol, (6aR-trans)-6a,7,8,10a-tetrahydro-6,6,9-trimethyl-3-pentyl-6H-dibenzo[b,d]pyran-1-ol]
- Negative affect score, F(time) [1, 8]: 2.46
- Negative affect score, p for F(time) [1, 8]: 0.045
- Positive affect score, change ([1]; dronabinol and placebo treatments, six weeks each): positive affect remained similar during both treatments; also recorded: did not change the Positive Affect
- Negative affect score, decrease by order of treatment ([1]; dronabinol first vs placebo first): the decrease was greater for those who received dronabinol first, compared to those who received placebo first
- Negative affect score, F(order×time) [1, 9]: 5.45
- Negative affect score, p for F(order×time) [1, 9]: < 0.0005
- Negative affect score, change vs placebo periods ([1]; on dronabinol vs placebo periods): decreased more while patients were on dronabinol then during the placebo periods
- Negative affect score, F(time×treatment) [1, 10]: 3.98
- Negative affect score, p for F(time×treatment) [1, 10]: 0.004
- Anxiety/nervousness, percentage of total patients [2, 11]: 92%
- Ataxia, percentage of total patients [2, 11]: 16%
- Depression, percentage of total patients [2, 11]: 16%
- Diarrhea, percentage of total patients [2, 11]: 16%
- Emotional lability, percentage of total patients [2, 11]: 92%
- Euphoria, percentage of total patients [2, 11]: 58%
- Flushing, percentage of total patients [2, 11]: 8%
- Hallucination, percentage of total patients [2, 11]: 33%
- Headache, percentage of total patients [2, 11]: 8%
- Increased confusion, percentage of total patients [2, 11]: 8%
- Muscle pain, percentage of total patients [2, 11]: 16%
- Paranoid reaction, percentage of total patients [2, 11]: 33%
- Somnolence, percentage of total patients [2, 11]: 67%
- Sweating, percentage of total patients [2, 11]: 8%
- Tiredness, percentage of total patients [2, 11]: 75%
- Incidence of seizure ([2]; dronabinol treated patient): one
- Euphoria as an adverse reaction, frequency vs placebo ([2]; dronabinol treatment vs placebo periods): reported more frequently and in more patients during the dronabinol treatment than during placebo periods
- Somnolence, frequency vs placebo ([2]; patients treated with dronabinol vs patients on placebo): twice as common
- Anxiety/nervousness, percentage of weeks [2, 12]: 53%
- Ataxia, percentage of weeks [2, 12]: 8%
- Depression, percentage of weeks [2, 12]: 6%
- Diarrhea, percentage of weeks [2, 12]: 4%
- Emotional lability, percentage of weeks [2, 12]: 46%
- Euphoria, percentage of weeks [2, 12]: 44%
- Flushing, percentage of weeks [2, 12]: 3%
- Hallucination, percentage of weeks [2, 12]: 16%
- Headache, percentage of weeks [2, 12]: 1%
- Increased confusion, percentage of weeks [2, 12]: 3%
- Muscle pain, percentage of weeks [2, 12]: 10%
- Paranoid reaction, percentage of weeks [2, 12]: 23%
- Somnolence, percentage of weeks [2, 12]: 41%
- Sweating, percentage of weeks [2, 12]: 3%
- Tiredness, percentage of weeks [2, 12]: 36%
- Low levels of dronabinol metabolites detected in urine and feces, time ([3]; after initiation of a supervised abstinence, Dackis et al. 1982): 2-5 weeks
- Presence of tetrahydrocannabinol metabolites in the urine, time after ingestion ([3]; urine, after ingestion of marijuana, Ellis et al. 1985): ≤ 77 days
- Initial half-life [4]: four
- Terminal half-life [4]: 25 to 36 h
- Mood / sense of well-being [5]: elevated mood or sense of well-being
- Disturbed behavior (CMAI score), change ([6]; during dronabinol treatment, 2.5 mg morning and noon, six weeks): Disturbed behavior decreased during dronabinol treatment
- Disturbed behavior (CMAI), persistence of decrease ([6]; placebo period following treatment with dronabinol): this decrease in disturbed behavior persisted during the placebo period following treatment with dronabinol; also recorded: carried over to the following placebo period
- CMAI score, F(order×treatment) [6, 13]: 2.78
- CMAI score, p for F(order×treatment) [6, 13]: 0.12
- CMAI score as percentage of the baseline, F(order×time) [6, 14]: 2.35
- CMAI score as percentage of the baseline, p for order×time interaction [6, 14]: 0.05
- Disturbed behavior, difference in the second treatment period ([6]; second treatment period of crossover): no difference in the disturbed behavior in the second treatment period
- Agitation (CMAI and Observed Affect Scale), change ([6]; two scales: CMAI and Observed Affect Scale): Decreased agitation
- PRN psychoactive medication doses, average [7]: 7.2 doses/6 weeks
